Assay results as given in ChEMBL document CHEMBL1201862, “PubChem BioAssay data set” (2004).
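Following 48 hours of exposure in 96-well plates, responses at five concentrations were used to interpolate endpoints linearly. GI50 is the concentration that inhibits growth by half.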 Activity calls are given as the source filed them. Rule as the data show it: active = GI50 up to about 1.1 µM and inactive = higher.

Assays:
Assay in all cases: NCI tumour cell line growth inhibition, 48 h
NCI-H522 = tested on: NCI-H522
SF-295 = tested on: SF-295
OVCAR-3 = tested on: OVCAR-3
OVCAR-8 = tested on: OVCAR-8
CAKI-1 = tested on: CAKI-1
PC-3 = tested on: PC-3
SK-MEL-5 = tested on: SK-MEL-5
SF-539 = tested on: SF-539
A498 = tested on: A498
OVCAR-5 = tested on: OVCAR-5
SN12C = tested on: SN12C
NCI/ADR-RES = tested on: NCI/ADR-RES
HL-60 = tested on: HL-60
OVCAR-4 = tested on: OVCAR-4
MDA-N = tested on: MDA-N
LOX IMVI = tested on: LOX IMVI
SR = tested on: SR
SF-268 = tested on: SF-268
K562 = tested on: K562
IGROV-1 = tested on: IGROV-1
786-0 = tested on: 786-0
COLO 205 = tested on: COLO 205
RPMI-8226 = tested on: RPMI-8226
U-251 = tested on: U-251
HCT-116 = tested on: HCT-116
KM12 = tested on: KM12
BT-549 = tested on: BT-549
RXF 393 = tested on: RXF 393
SK-OV-3 = tested on: SK-OV-3
SW-620 = tested on: SW-620
MDA-MB-435 = tested on: MDA-MB-435
SNB-19 = tested on: SNB-19
MDA-MB-231 = tested on: MDA-MB-231
A549 = tested on: A549
HCT-15 = tested on: HCT-15
HT-29 = tested on: HT-29
NCI-H460 = tested on: NCI-H460
EKVX = tested on: EKVX
UACC-257 = tested on: UACC-257
NCI-H226 = tested on: NCI-H226
DU-145 = tested on: DU-145
NCI-H23 = tested on: NCI-H23
T47D = tested on: T47D
M14 = tested on: M14
MCF7 = tested on: MCF7
MOLT-4 = tested on: MOLT-4
HOP-62 = tested on: HOP-62
UACC-62 = tested on: UACC-62
HOP-92 = tested on: HOP-92
TK-10 = tested on: TK-10
CCRF-CEM = tested on: CCRF-CEM
HCC 2998 = tested on: HCC 2998

SMILES: COc1cc2c(c(N)c1OC)C(=O)/C(=C/c1cc(C)c(O)c(C)c1)C2
- GI50 (NCI-H522): < 0.01 µM (active)
- GI50 (SF-295): 0.0562 µM (active)
- GI50 (OVCAR-3): < 0.01 µM (active)
- GI50 (OVCAR-8): < 0.01 µM (active)
- GI50 (CAKI-1): 4.25 µM (inactive)
- GI50 (PC-3): < 0.01 µM (active)
- GI50 (SK-MEL-5): < 0.01 µM (active)
- GI50 (SF-539): < 0.01 µM (active)
- GI50 (A498): 7.13 µM (inactive)
- GI50 (OVCAR-5): 0.693 µM (active)
- GI50 (SN12C): < 0.01 µM (active)
- GI50 (NCI/ADR-RES): 0.0104 µM (active)
- GI50 (HL-60): < 0.01 µM (active)
- GI50 (OVCAR-4): 7.91 µM (inactive)
- GI50 (MDA-N): < 0.01 µM (active)
- GI50 (LOX IMVI): < 0.01 µM (active)
- GI50 (SR): < 0.01 µM (active)
- GI50 (SF-268): < 0.01 µM (active)
- GI50 (K562): < 0.01 µM (active)
- GI50 (IGROV-1): 0.0367 µM (active)
- GI50 (786-0): < 0.01 µM (active)
- GI50 (COLO 205): 5.6 µM (inactive)
- GI50 (RPMI-8226): < 0.01 µM (active)
- GI50 (U-251): < 0.0164 µM (active)
- GI50 (HCT-116): < 0.01 µM (active)
- GI50 (KM12): < 0.01 µM (active)
- GI50 (BT-549): 9.68 µM (inactive)
- GI50 (RXF 393): 0.0323 µM (active)
- GI50 (SK-OV-3): < 0.01 µM (active)
- GI50 (SW-620): < 0.01 µM (active)
- GI50 (MDA-MB-435): < 0.01 µM (active)
- GI50 (SNB-19): < 0.01 µM (active)
- GI50 (MDA-MB-231): 0.0141 µM (active)
- GI50 (A549): < 0.01 µM (active)
- GI50 (HCT-15): < 0.01 µM
- GI50 (HT-29): 2.64 µM (inactive)
- GI50 (NCI-H460): < 0.01 µM (active)
- GI50 (EKVX): < 0.01 µM (active)
- GI50 (UACC-257): > 100 µM (inactive)
- GI50 (NCI-H226): 4.19 µM (inactive)
- GI50 (DU-145): < 0.01 µM (active)
- GI50 (NCI-H23): < 0.01 µM (active)
- GI50 (T47D): > 100 µM (inactive)
- GI50 (M14): < 0.01 µM (active)
- GI50 (MCF7): < 0.01 µM (active)
- GI50 (MOLT-4): < 0.01 µM (active)
- GI50 (HOP-62): < 0.0176 µM (active)
- GI50 (UACC-62): < 0.01 µM (active)
- GI50 (HOP-92): > 100 µM (inactive)
- GI50 (TK-10): > 76 µM (inactive)
- GI50 (CCRF-CEM): < 0.01 µM (active)
- GI50 (HCC 2998): 1.95 µM (inactive)
